Our source for the EC50 values is patent US20220226337A1 (Gilead Sciences, Inc., priority 2018, published 2022).

In the test the target is T1, α4β7 integrin interaction with MadCAM-1 (RPMI8866 cells) (Homo sapiens, UniProt P13612+P26010).
T1 construct: α4β7 integrin expressing cells; endogenous in cells; host or cells: RPMI8866 cells
T1 sequence (P13612 34-1032): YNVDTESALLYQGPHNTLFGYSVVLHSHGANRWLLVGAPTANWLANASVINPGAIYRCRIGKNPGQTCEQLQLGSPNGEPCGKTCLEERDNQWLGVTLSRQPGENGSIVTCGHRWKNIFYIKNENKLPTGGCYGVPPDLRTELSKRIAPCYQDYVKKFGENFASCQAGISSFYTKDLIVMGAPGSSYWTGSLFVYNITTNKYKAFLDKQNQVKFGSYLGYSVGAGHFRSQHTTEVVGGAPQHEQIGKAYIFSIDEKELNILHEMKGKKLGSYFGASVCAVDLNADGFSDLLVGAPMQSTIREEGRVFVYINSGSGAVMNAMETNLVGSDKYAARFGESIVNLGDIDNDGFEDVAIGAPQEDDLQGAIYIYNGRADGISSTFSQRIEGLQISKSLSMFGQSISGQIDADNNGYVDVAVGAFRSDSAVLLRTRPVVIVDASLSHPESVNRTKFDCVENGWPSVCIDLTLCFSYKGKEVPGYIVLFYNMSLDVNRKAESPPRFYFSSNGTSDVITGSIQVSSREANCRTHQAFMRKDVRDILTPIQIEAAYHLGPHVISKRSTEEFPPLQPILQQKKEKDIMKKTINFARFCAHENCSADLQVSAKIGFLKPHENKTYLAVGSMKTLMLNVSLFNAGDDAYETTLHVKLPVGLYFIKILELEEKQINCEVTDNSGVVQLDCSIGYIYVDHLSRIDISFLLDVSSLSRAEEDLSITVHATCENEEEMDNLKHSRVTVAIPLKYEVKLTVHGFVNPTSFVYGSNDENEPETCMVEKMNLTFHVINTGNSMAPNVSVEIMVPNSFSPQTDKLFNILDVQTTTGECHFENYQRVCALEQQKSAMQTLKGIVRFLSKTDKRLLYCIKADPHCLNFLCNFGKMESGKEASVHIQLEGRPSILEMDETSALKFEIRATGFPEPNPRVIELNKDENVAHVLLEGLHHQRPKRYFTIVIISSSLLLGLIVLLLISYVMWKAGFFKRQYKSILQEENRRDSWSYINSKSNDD
T1 sequence (P26010 20-798): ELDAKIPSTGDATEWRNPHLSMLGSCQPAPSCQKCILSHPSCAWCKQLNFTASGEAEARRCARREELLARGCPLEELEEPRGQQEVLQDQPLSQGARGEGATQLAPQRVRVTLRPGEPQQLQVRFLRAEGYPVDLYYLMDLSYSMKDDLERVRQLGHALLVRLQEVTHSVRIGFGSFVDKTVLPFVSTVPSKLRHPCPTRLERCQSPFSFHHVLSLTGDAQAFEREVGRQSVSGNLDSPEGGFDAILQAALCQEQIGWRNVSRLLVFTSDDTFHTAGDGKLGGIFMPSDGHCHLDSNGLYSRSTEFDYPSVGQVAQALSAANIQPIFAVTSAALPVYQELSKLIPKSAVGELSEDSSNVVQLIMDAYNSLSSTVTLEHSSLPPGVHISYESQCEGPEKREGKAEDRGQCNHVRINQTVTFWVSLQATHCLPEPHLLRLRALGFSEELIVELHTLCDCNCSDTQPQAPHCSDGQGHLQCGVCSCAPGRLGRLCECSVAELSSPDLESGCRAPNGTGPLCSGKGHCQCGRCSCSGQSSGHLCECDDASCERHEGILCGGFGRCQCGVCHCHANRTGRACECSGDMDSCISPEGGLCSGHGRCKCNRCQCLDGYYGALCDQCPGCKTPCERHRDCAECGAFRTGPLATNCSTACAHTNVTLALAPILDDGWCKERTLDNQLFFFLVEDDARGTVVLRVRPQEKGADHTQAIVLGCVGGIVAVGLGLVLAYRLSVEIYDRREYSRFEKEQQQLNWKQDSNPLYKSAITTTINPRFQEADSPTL
The test is described as follows: α4β7 Integrin Cell Capture Assay. The class given is cell-based. Conditions: capture of α4β7 integrin expressing RPMI8866 cells on recombinant MadCAM-1 extracellular domain-coated plate; 0.5 mM MnCl2. How it is done:
The potency of inhibitors in preventing α4β7 integrin interaction with MadCAM-1 was measured by monitoring the capture of α4β7 integrin expressing cells on a recombinant MadCAM-1 extracellular domain-coated plate. 384-well plates (Corning 3702) were coated with MadCAM-1 extracellular domain by dispensing 20 μL of MAdCAM-1 at 1.0 μg/mL per well and incubating overnight at 4° C. The plates were then washed with PBS and blocked with 3% BSA for 2 hours before being washed again. RPMI8866 cells were spun down and re-suspended in assay medium (DMEM+0.5% FBS+0.5 mM MnCl2) at a density of 0.5×10^6 cells/mL. The cells were then dispensed (60 μL/well) to a 384-well plate (Greiner 781280) that was previously spotted with 60 nL of test compound per well. The plates were incubated at 37° C. for 1 hour. 50 μL of cells were transferred to the blocked, MadCAM-1-coated plates and incubated for 30 minutes at 37° C. 10 μL of 12% glutaraldehyde containing Hoechst 33342 (0.06 mg/mL) was added to the cells (2% glutaraldehyde and 0.01 mg/mL final concentrations). The plates were incubated for 90 minutes at room temperature. The plates were then washed 3 times with 70 μL of PBS per well and imaged on a Cellomics ArrayScan instrument. The cells that were bound to the plate were counted and plotted against the compound concentration to determine the EC50 of the test compounds.
As to `Cc1cc(C(F)(F)F)c(-c2ccc(C[C@H](NC(=O)c3c(F)cc(N[C@H](C)C(F)(F)F)cc3F)C(=O)O)c3c2COC3)c(=O)n1C` [Example 20, (S)-2-(2,6-difluoro-4-(((R)-1,1,1-trifluoropropan-2-yl)amino)benzamido)-3-(7-(1,6-dimethyl-2-oxo-4-(trifluoromethyl)-1,2-dihydropyridin-3-yl)-1,3-dihydroisobenzofuran-4-yl)propanoic acid], the EC50 is 0.242 nM.
For `CC[C@@H](Nc1cc(F)c(C(=O)N[C@@H](Cc2ccc(-c3cc4ccccc4n(C)c3=O)c3c2COC3)C(=O)O)c(F)c1)C(F)(F)F` [Example 21, (S)-2-(2,6-difluoro-4-(((R)-1,1,1-trifluorobutan-2-yl)amino)benzamido)-3-(7-(1-methyl-2-oxo-1,2-dihydroquinolin-3-yl)-1,3-dihydroisobenzofuran-4-yl)propanoic acid] the value was 6 nM; for `CC[C@@H](Nc1cc(F)c(C(=O)N[C@@H](Cc2ccc(-c3c(C)cc(C)n(C)c3=O)c3c2COC3)C(=O)O)c(F)c1)C(F)(F)F` [Example 22, (S)-2-(2,6-difluoro-4-(((R)-1,1,1-trifluorobutan-2-yl)amino)benzamido)-3-(7-(1,4,6-trimethyl-2-oxo-1,2-dihydropyridin-3-yl)-1,3-dihydroisobenzofuran-4-yl)propanoic acid], 1.35 nM.
The figure for `CC[C@@H](Nc1cc(F)c(C(=O)N[C@@H](Cc2ccc(-c3c(OC)cc(C)n(C)c3=O)c3c2COC3)C(=O)O)c(F)c1)C(F)(F)F` [Example 23, (S)-2-(2,6-difluoro-4-(((R)-1,1,1-trifluorobutan-2-yl)amino)benzamido)-3-(7-(4-methoxy-1,6-dimethyl-2-oxo-1,2-dihydropyridin-3-yl)-1,3-dihydroisobenzofuran-4-yl) propanoic acid] is 0.692 nM.
The figure for `CC[C@@H](Nc1cc(F)c(C(=O)N[C@@H](Cc2ccc(-c3ncc(C)c(C)n3)c3c2COC3)C(=O)O)c(F)c1)C(F)(F)F` [Example 24, (S)-2-(2,6-difluoro-4-(((R)-1,1,1-trifluorobutan-2-yl)amino)benzamido)-3-(7-(4,5-dimethylpyrimidin-2-yl)-1,3-dihydroisobenzofuran-4-yl)propanoic acid] is 100 nM.
With `Cn1c(=O)c(-c2ccc(C[C@H](NC(=O)c3c(F)cc(N4CCOC[C@@H]4C(F)(F)F)cc3F)C(=O)O)c3c2COC3)cc2ccccc21` [Example 26, (S)-2-(2,6-difluoro-4-((R)-3-(trifluoromethyl)morpholino)benzamido)-3-(7-(1-methyl-2-oxo-1,2-dihydroquinolin-3-yl)-1,3-dihydroisobenzofuran-4-yl)propanoic acid], the half-maximal effective concentration (EC50) is 1.04 nM.
For `Cc1cc(C)n(C)c(=O)c1-c1ccc(C[C@H](NC(=O)c2c(F)cc(N3CCOC[C@@H]3C(F)(F)F)cc2F)C(=O)O)c2c1COC2` [Example 27, (S)-2-(2,6-difluoro-4-((R)-3-(trifluoromethyl)morpholino)benzamido)-3-(7-(1,4,6-trimethyl-2-oxo-1,2-dihydropyridin-3-yl)-1,3-dihydroisobenzofuran-4-yl)propanoic acid] the value was 0.822 nM.
For `Cc1cnc(-c2ccc(C[C@H](NC(=O)c3c(F)cc(N4CCOC[C@@H]4C(F)(F)F)cc3F)C(=O)O)c3c2COC3)nc1C` [Example 28, (S)-2-(2,6-difluoro-4-((R)-3-(trifluoromethyl)morpholino)benzamido)-3-(7-(4,5-dimethylpyrimidin-2-yl)-1,3-dihydroisobenzofuran-4-yl)propanoic acid] the value was 94.9 nM; for `Cc1c(C(F)(F)F)cn(C)c(=O)c1-c1ccc(C[C@H](NC(=O)c2c(F)cc(N3CCOC[C@@H]3C(F)(F)F)cc2F)C(=O)O)c2c1COC2` [Example 29, (S)-2-(2,6-difluoro-4-((R)-3-(trifluoromethyl)morpholino)benzamido)-3-(7-(1,4-dimethyl-2-oxo-5-(trifluoromethyl)-1,2-dihydropyridin-3-yl)-1,3-dihydroisobenzofuran-4-yl)propanoic acid], 0.817 nM.
For `Cc1cc(C)n(C)c(=O)c1-c1ccc(C[C@H](NC(=O)c2c(F)cc(N[C@H](C)C(F)(F)F)cc2F)C(=O)O)c2c1COC2` [Example 30, (S)-2-(2,6-difluoro-4-(((R)-1,1,1-trifluoropropan-2-yl)amino)benzamido)-3-(7-(1,4,6-trimethyl-2-oxo-1,2-dihydropyridin-3-yl)-1,3-dihydroisobenzofuran-4-yl)propanoic acid] the value was 1.74 nM; for `CC[C@@H](Nc1cc(F)c(C(=O)N[C@@H](Cc2ccc(-c3cc4ccccc4n(C)c3=O)c3c2CCCO3)C(=O)O)c(F)c1)C(F)(F)F` [Example 31, (S)-2-(2,6-difluoro-4-(((R)-1,1,1-trifluorobutan-2-yl)amino)benzamido)-3-(8-(1-methyl-2-oxo-1,2-dihydroquinolin-3-yl)chroman-5-yl)propanoic acid], 8.81 nM; for `Cn1c(=O)c(-c2ccc(C[C@H](NC(=O)c3c(F)cc(N4CCOC[C@@H]4C(F)(F)F)cc3F)C(=O)O)c3c2OCCC3)cc2ccccc21` [Example 32, (S)-2-(2,6-difluoro-4-((R)-3-(trifluoromethyl)morpholino)benzamido)-3-(8-(1-methyl-2-oxo-1,2-dihydroquinolin-3-yl)chroman-5-yl)propanoic acid], 1.78 nM.
For the compound `CC[C@@H](Nc1cc(F)c(C(=O)N[C@@H](Cc2ccc(-c3c(C)c4cc(F)ccc4n(C)c3=O)c3c2CCCO3)C(=O)O)c(F)c1)C(F)(F)F` [Example 33, (S)-2-(2,6-difluoro-4-(((R)-1,1,1-trifluorobutan-2-yl)amino)benzamido)-3-(8-(6-fluoro-1,4-dimethyl-2-oxo-1,2-dihydroquinolin-3-yl)chroman-5-yl)propanoic acid], the EC50 was found to be 2.72 nM.
The figure for `Cc1c(-c2ccc(C[C@H](NC(=O)c3c(F)cc(N4CCOC[C@@H]4C(F)(F)F)cc3F)C(=O)O)c3c2OCCC3)c(=O)n(C)c2ccc(F)cc12` [Example 34, (S)-2-(2,6-difluoro-4-((R)-3-(trifluoromethyl)morpholino)benzamido)-3-(8-(6-fluoro-1,4-dimethyl-2-oxo-1,2-dihydroquinolin-3-yl)chroman-5-yl)propanoic acid] is 0.236 nM.
